Experimental data from a melting point compilation (Tetko et al.).

Row | SMILES | melting point [°C]
1 | CC(C)c1cc(Br)cc([N+](=O)[O-])c1N | 39 to 41
2 | CC1CC(=O)c2c(O)ccc(Cl)c21 (configuration not stated) | 55 to 57
3 | N#Cc1ccc(Oc2cccc(N)c2)cc1 | 86 to 88
4 | Cn1c(C(=O)O)cc2ccccc21 | 212 to 213
5 | CCCCc1ccc(N2CC(C(=O)O)CC2=O)cc1 (configuration not stated) | 139 to 141
6 | CC(C)CNc1c(N)n(CC(C)C)c(=O)[nH]c1=O | 197 to 199
7 | COc1ccc(CC(N)c2ccc(OC)cc2)cc1 (configuration not stated) | 175 to 177
8 | COC(=O)C1CCCc2[nH]ncc21 (configuration not stated) | 84 to 86
9 | Cc1nc(-c2cccnc2)[nH]c(=O)c1CC(=O)O | 263 to 265
10 | CC(=O)NNC(=O)CCl | 157 to 159
11 | O=C(O)C(F)(F)c1ccc(Cl)c(Cl)c1 | 109 to 111
12 | CC(C)(C)OC(=O)NC1CCCCC1(C)C(=O)O (configuration not stated) | 149 to 151
13 | Cc1ncc(CO)c(C)n1 | 52 to 54
14 | O=C(O)c1ccc(I)cc1Cl | 159 to 161
15 | COC(=O)C(N)c1ccc2ccccc2c1 (configuration not stated) | 56 to 58
16 | CNCC(=O)Nc1ccc(Cl)cc1 | 58 to 60
17 | O=C(O)c1ccc(NC(=O)C2CC2)s1 | 205 to 207
18 | CC(C)c1noc(N)n1 | 101 to 103
19 | O=C(CC(=O)C(F)(F)F)c1ccncc1 | 255 to 257
20 | O=C(O)c1ccc(Oc2ccccc2[N+](=O)[O-])cc1 | 196 to 198
21 | BrCCCOc1ccc2c(c1)OCO2 | 60 to 62
22 | O=Cc1cnc(-c2cnccn2)s1 | 159 to 161
23 | CCOC(=O)NC1CCC(O)CC1 (configuration not stated) | 132 to 134
24 | O=C(O)c1ccc(Cc2nnc[nH]2)cc1 | 219 to 221
25 | O=C(Nc1ccc(-n2cnc3ccccc32)nc1)OCC(F)(F)F | 239 to 241
26 | Cc1ccc(-n2c(=O)c(N)c(C)n2C)cc1 | 261 to 263

Row | SMILES | melting point [°C]
27 | O=C(O)C1(c2ccc(F)cc2)CCC1 | 67 to 69
28 | Nc1cc(-c2ccccc2I)no1 | 120 to 122
29 | Cc1nc2s[nH]c(=O)c2c(C)c1C | 236 to 238
30 | Cc1nn(-c2ccc(Cl)cc2Cl)c(C)c1CC(=O)O | 186 to 188
31 | O=C1OC(=O)c2cc([N+](=O)[O-])cc3cc([N+](=O)[O-])cc1c23 | 216 to 218
32 | O=C(O)C(=Cc1ccc(F)cc1)c1cccs1 | 185 to 187
33 | O=C(O)CCc1ccccn1 | 134 to 136
34 | CC1CN(C(CN)c2c(F)cccc2F)CC(C)O1 (configuration not stated) | 59 to 61
35 | COc1cc(C=O)cc(OC)c1OC(F)F | 115 to 117
36 | CC(=O)N(C)CC(=O)O | 137 to 139
37 | CC(C)Nc1cccnc1 | 40 to 42
38 | O=C(O)CCNC(=O)NC1CCCCC1 | 163 to 165
39 | O=C(O)c1ccc(Oc2ccc(Br)cc2)c(F)c1 | 251 to 253
40 | COc1cc(OCC(=O)O)ccc1[N+](=O)[O-] | 195 to 197
41 | O=C(O)c1cc2ccccc2n1Cc1ccccc1 | 197 to 199
42 | CC(C)(C)c1ccc(OCCC(=O)O)cc1 | 94 to 96
43 | CC1c2ccccc2OC1C(=O)O (configuration not stated) | 121 to 123
44 | COc1ccc(C(=O)CCl)c(OC)c1 | 48 to 50
45 | O=C(O)c1cnn(-c2ccccc2F)c1 | 160 to 162
46 | COc1ccc2c(c1)NC(=O)CCC2 | 127 to 129
47 | Cc1cc(C(=O)NN)c2ccccc2n1 | 177 to 179
48 | CC(Cl)C(=O)Nc1ccc([N+](=O)[O-])cc1C(F)(F)F (configuration not stated) | 183 to 185
49 | Cc1cc(C(=O)C=O)ccc1F | 76 to 78
50 | COc1ccc(CCNC(N)=S)cc1OC | 159 to 161
51 | OC1C=C(c2ccc(Cl)cc2)CC1 (configuration not stated) | 89 to 91
52 | CC(C)(C)c1ccc(C(=O)O)s1 | 119 to 121

Row | SMILES | melting point [°C]
53 | O=C(Nc1ccc(F)cc1F)OCC(F)(F)F | 72 to 74
54 | COC(=O)c1cccc(-c2ncno2)c1 | 101 to 103
55 | CCOC(=O)c1cnc2c(OC)cc(OC)cc2c1Cl | 148 to 150
56 | O=C(O)c1sccc1S(=O)(=O)NCc1cccs1 | 138 to 140
57 | COc1ccc(N)cc1S(=O)(=O)N1CCCCC1 | 93 to 95
58 | CC(C)(C)OC(=O)NC1CCCCCC1C(=O)O (configuration not stated) | 123 to 125
59 | O=C(O)CNc1ccc(Br)cc1 | 154 to 156
60 | CC1C=CC2C(=O)N(CC(F)(F)F)C(=O)C2C1C(=O)O (configuration not stated) | 166 to 168
61 | O=C(O)c1ccc(-c2ccc(OC(F)F)cc2)s1 | 209 to 211
62 | CNCCC1CCN(C2CCN(C)CC2)CC1 | 48 to 50
63 | NNc1ccc(C(F)(F)F)nn1 | 132 to 134
64 | O=C(CCl)N1CCc2cc(S(=O)(=O)N3CCCCC3)ccc21 | 185 to 187
65 | O=C(O)c1cnc2c(cnn2C2CCCC2)c1 | 141 to 143
66 | COc1ccc(OC)c(CNCCO)c1 | 91 to 93
67 | Cc1nc2c([nH]1)CCC(C(=O)O)C2 (configuration not stated) | 229 to 231
68 | Cn1ccnc1C(N)=S | 134 to 136
69 | O=C(O)C1(c2ccc(Cl)c(Cl)c2)CCC1 | 116 to 118
70 | NC(=O)c1ccc(-c2nn[nH]n2)cc1 | 258 to 260
71 | Sc1nc(-c2ccccn2)no1 | 146 to 148
72 | O=C(O)c1sccc1S(=O)(=O)N1CCCCC1CCO (configuration not stated) | 121 to 123
73 | O=C1CNC2(CCCCC2)C(=O)N1 | 184 to 186
74 | c1c[nH]c(C2CCCN2)c1 (configuration not stated) | 75 to 77
75 | O=C(Nc1ccccc1[N+](=O)[O-])N1CCCC1 | 99 to 101
76 | O=C(O)[C@@H]1CCCN1C(=O)c1ccccn1 | 165 to 167
77 | O=C(NC1CC1)n1ccnc1 | 89 to 91
78 | Cc1ccc(C)n1-c1ccc(N)cc1 | 93 to 95

Row | SMILES | melting point [°C]
79 | O=C(O)c1cc(/C=C/c2ccc(Cl)cc2)nc2ccc(Br)cc12 | 320 to 322
80 | O=C(O)c1c[nH]nc1-c1ccncc1 | 334 to 336
81 | Cc1cc(N2C(=O)c3ccccc3C2=O)ccc1C(=O)O | 271 to 273
82 | CC1CCCCC12NC(=O)N(CC(=O)O)C2=O (configuration not stated) | 156 to 158
83 | COC(=O)N1CCc2ccccc21 | 72 to 74
84 | O=c1[nH][nH]c2ncccc12 | 260 to 262
85 | CCOc1cccc(C=CC(=O)O)c1OC1CCCC1 | 133 to 135
86 | CCS(=O)(=O)Nc1nc2ccc(N)cc2s1 | 217 to 219
87 | Cc1nc2cc(O)nn2c(C)c1CCC(=O)O | 302 to 304
88 | O/N=C/c1c(Cl)nc(Cl)n1-c1ccccc1 | 179 to 181
89 | Nc1ccc2[nH]c(CCN3CCOCC3)nc2c1 | 201 to 203
90 | O=C(O)c1ccc(NC(=O)c2ccccn2)cc1 | 263 to 265
91 | CON(C)S(=O)(=O)c1ccc(Cl)c(C(=O)O)c1 | 184 to 186
92 | CNc1snc(C)c1C(=O)OC | 56 to 58
93 | Cc1cccc(NC(=O)C(C)Cl)c1 (configuration not stated) | 128 to 130
94 | COCCOc1ccc(C#N)cc1 | 44 to 46
95 | COc1ccc(C2(C(=O)O)CCC2)cc1 | 95 to 97
96 | O=C(O)CCCSc1ccc(Cl)cc1 | 106 to 108
97 | N#CCOc1ccc(CO)cc1 | 98 to 100
98 | NC(=O)COc1ccccc1C(=O)O | 199 to 201
99 | CC1(c2ccc(Br)cc2)NC(=O)N(CC(=O)O)C1=O (configuration not stated) | 247 to 249
100 | O=C1COc2ccc(Cl)cc21 | 115 to 117
101 | COC(=O)c1c(C)[nH]c(C(=O)CCl)c1C | 166 to 168
102 | NNc1ccc(S(=O)(=O)C(F)(F)F)cc1 | 93 to 95
